The source of these data is publication PMC9445029, “A Cryptochrome adopts distinct moon- and sunlight states and functions as sun- versus moonlight interpreter in monthly oscillator entrainment” (Nature Communications, 2022).

The target in one experiment is T1, L-Cry (Pdu-L-Cry) (Platynereis dumerilii, UniProt Z9ZPX6J9J5).
T1 sequence (Z9ZPX6J9J5 1-565): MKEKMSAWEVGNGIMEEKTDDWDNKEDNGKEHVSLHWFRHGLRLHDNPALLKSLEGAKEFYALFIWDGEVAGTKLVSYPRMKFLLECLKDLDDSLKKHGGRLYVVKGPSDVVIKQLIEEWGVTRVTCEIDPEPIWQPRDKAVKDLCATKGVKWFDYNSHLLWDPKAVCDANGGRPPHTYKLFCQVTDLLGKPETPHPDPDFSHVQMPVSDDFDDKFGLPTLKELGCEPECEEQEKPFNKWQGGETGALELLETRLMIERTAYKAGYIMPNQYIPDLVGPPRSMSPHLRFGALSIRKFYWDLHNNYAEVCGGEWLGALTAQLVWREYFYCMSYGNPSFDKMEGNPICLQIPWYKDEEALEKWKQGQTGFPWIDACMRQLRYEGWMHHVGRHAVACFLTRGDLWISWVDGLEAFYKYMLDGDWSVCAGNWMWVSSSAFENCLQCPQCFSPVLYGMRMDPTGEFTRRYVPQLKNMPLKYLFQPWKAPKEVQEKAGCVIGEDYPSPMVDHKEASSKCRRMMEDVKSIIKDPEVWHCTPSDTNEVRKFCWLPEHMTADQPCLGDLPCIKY
Put plainly: RP-HPLC of chromophore released from purified protein; UV/Vis spectroscopy. Format: binding. Particulars: co-purified from Sf9 cells; dark state oxidized FAD (maxima 450 and 475 nm), photoreduced to anionic radical; pH 8.0, 1 mM TCEP.

Experiment [1] deals with Platynereis dumerilii L-Cryptochrome (L-Cry), full length, N-terminally His6-tagged (1-567) (Platynereis dumerilii). Put plainly: SEC-MALS; purified dark-state L-Cry on a Superose 6 10/300 column, 0.4 ml/min, SEC buffer 25 mM Bis-Tris propane pH 8.0, 150 mM NaCl; molar mass about 130 kDa against 65.6 kDa for the monomer. Background: Size exclusion chromatography separates by hydrodynamic size, large species first.

As for `Cc1cc2nc3c(=O)[nH]c(=O)nc-3n(C[C@H](O)[C@H](O)[C@H](O)COP(=O)(O)OP(=O)(O)OC[C@H]3O[C@@H](n4cnc5c(N)ncnc54)[C@H](O)[C@@H]3O)c2cc1C` [Flavin Adenine Dinucleotide], at L-Cry (Pdu-L-Cry), the “RP-HPLC of chromophore released from purified protein; UV/Vis spectroscopy” value is “purified L-Cry binds Flavin Adenine Dinucleotide (FAD) as its chromophore”.
In experiment [1], “Platynereis dumerilii L-Cryptochrome (L-Cry), full length, N-terminally His6-tagged (1-567) (natural protein)” gave a stoichiometry N of 2.

Usually stoichiometry N stands for a count of units in the complex or per binding partner.
